Measurements: patent US20240082183A1, “METHODS FOR PREVENTING OR TREATING CONDITIONS RELATED TO T CELL MEDIATED INTESTINAL DISORDERS” (The Regents of the University of Michigan, priority 2021, published 2024)

Columns and labels:
[1] = system: primary colonic epithelial cells (PCECs); test: In vitro allogeneic CTL assay, AnnexinV positive cells of Green CMFDA Dye positive PCECs; conditions: PCECs treated 0.2 mM for 2 hours
Description: PCECs were pre-treated with 5mM DMM, 0.5mM DI, 10nM atpenin A5 or vehicle for 3 hours.
Flow cytometry: Cells were re-suspended in 2% BSA in PBS and stained with the following antibodies and reagents; FITC-anti-CD326 (G8.8, #118208, 1:200), APC-anti-CD326 (G8.8, #118214, 1:200), DAPI, CellROX Deep Red (#C10491, 500 nM, Thermo Scientific), MitoSOX (#M36008, 5 μM, Thermo Scientific), JC-1 (#M34152, 2 μM, Thermo Scientific), 7-AAD (#420404, 1:100, BioLegend), Annexin V (#640947, 1:20, Biolegend), anti-CD16/CD32 antibody (BD Biosciences, 2.4G2), APC-anti-CD45.2 (#109814, 1:200, BioLegend), and CellTracker Green CMFDA Dye (#C7025, 1 μM, Invitrogen) according to manufacturer's protocol. Cells were run on Attune NxT flow cytometer (Thermo Scientific) and analyzed using FlowJo v10.2 (FlowJo LLC, Ashland, OR).

[2] = system: primary colonic epithelial cells (PCECs); test: Apoptosis of pre-treated PCECs induced by perforin and Granzyme B; type: cell-based, C57BL/6 mice; conditions: pre-treated 2 hours, then perforin and Granzyme B 4 hours
Description: Cell culture: C57BL/6 primary colonic epithelial cells (PCEC, C57-6047, Cell Biologics, Chicago, IL) were cultured in compete epithelial growth medium supplemented with insulin-transferrin-selenium, epidermal growth factor, glutamine, antibiotics, antimycotics and fecal bovine serum (#M6621, Cell Biologics). Cells were routinely tested for mycoplasma contamination using MycoAlert (#LT07-318, Lonza, Switzerland). Cells were treated with Mouse active perforin (#APB317Mu01, Cloud-Clone Corp., Katy, TX) and recombinant mouse Granzyme B (#140-03, PeproTech, Rocky Hill, NJ) for 4 to 6 hours in indicated concentrations following manufacturer's recommendations. Cells were incubated with GDF-15 (#8944-GD-025, 500 pg/mL, R&D Systems, Minneapolis, MN), Tiron (#172553, 10 mM, Sigma-Aldrich, St. Louis, MO), Trolox (#648471, 0.5 mM, Sigma-Aldrich), 4-Octyl itaconate (#SML2338, 0.1 mM, Sigma-Aldrich) and NAD (#N8285, 1 mM, Sigma-Aldrich).

[3] = system: GI GVHD in B6 WT recipients; type: in vivo; conditions: for clinical GVHD severity of allogeneic mice vs vehicle / survival of allogeneic mice vs vehicle / survival of syngeneic mice: gavage every other day from day 0 post HCT; for histopathological GVHD severity in the colon and ileum / histopathological GVHD severity in the liver, skin, and lungs: allogeneic recipients, 7 days post HCT
Description: (§1) Hematopoietic cell transplantation (HCT): Splenic T cells from donors were enriched, and the BM was depleted of T cells by autoMACS (Miltenyi Biotec, Bergisch Gladbach, Germany) utilizing CD90.2 microbeads (#130-121-278, Miltenyi Biotec). WT B6, C3H.SW, Sdhaf1^−/−, Sdha^Δ/IEC , Irg1h−/−B6 and BALB/c animals were used as recipients and received 1,000 cGy (WT B6, Sdhaf1^−/−and Sdha^Δ/IEC) or 800 cGy (BALB/c) TBI on day −1, respectively, and 1×10^6 (C3H.SW→C57BL/B6 or C57BL/B6→BALB/c), 3×10^6 (BALB/c→C57BL/6, Sdhaf1^−/−, Sdha^Δ/IEC) CD90.2^+T cells along with 5×10^6 T-cell-depleted BM (TCD-BM) cells from either syngeneic or allogeneic donors on day 0. [B6Ly5.2→B6] and [B6 Ly5.2→Sdhaf1^−/−] animals received 900 cGy TBI on day −1 and were injected intravenously with 3×10^6 CD90.2^+T cells and 5×10^6 TCD-BM from either syngeneic B6 or BALB/c donors on day 0. For the chemotherapy conditioning model, B6 WT mice received busulfan (#B2635, 25 mg kg^−1 from day −7 to −4; Sigma-Aldrich) and cyclophosphamide (#C7397, 100 mg kg^−1 from day −3 to −2; Sigma-Aldrich) intraperitoneally, and 1×10^7 (BALB/c→C57BL/6) CD90.2^+T cells along with 1×10^7 TCD-BM cells from either syngeneic or allogeneic donors on day 0. For the no-irradiated model, unirradiated B6D2F1 mice were intravenously injected with 10×10^7 splenocytes from B6D2F1 or B6 donors. Animals received vehicle or dimethyl malonate (DMM, #136441, 0.5 g or 5g kg^−1, Sigma-Aldrich, St. Louis, MO, USA), dimethyl itaconate (DI, #09533, 0.25 g or 2.5g kg^−1, Sigma-Aldrich) or atpenin A5 (#11898, 0.9 μg or 9 μg kg^−1, Cayman Chemical, Ann Arbor, MI, USA) according to manufacturer's instructions by flexible 20-gauge, 1,5-in, intra-gastric gavage needle every other day from day 0. The mice were randomly assigned to syngeneic, allogeneic or treatment groups in each experiment. No mice were excluded from analysis. No statistical methods were used to predetermine sample size. The investigators were not blinded to allocation during experiments and outcome assessment.
Systemic and histopathological analysis of GVHD: Survival after HCT was monitored daily and assessed the degree of clinical GVHD weekly, as described previously^64. Histopathological analysis of the liver, gastrointestinal (GI) tract, and lung, which are the primary GVHD target organs, was performed as described utilizing a semi-quantitative scoring system implemented in a blinded manner by a single pathologist (C.L.)^65. After scoring, the codes were broken, and the data compiled.

SDHA = molecular target: T1, SDHA (Mus musculus, UniProt Q8K2B3+Q9CQA3+Q9CXV1+Q9CZB0); test: SDH enzyme staining of colon and ileum 12 h after oral gavage; type: in vivo, B6 WT mice; conditions: naive B6 WT, 12 h after administration
T1 construct: from tissue; host or cells: colon and ileum of naive B6 WT mice
T1 sequence (Q8K2B3 43-664): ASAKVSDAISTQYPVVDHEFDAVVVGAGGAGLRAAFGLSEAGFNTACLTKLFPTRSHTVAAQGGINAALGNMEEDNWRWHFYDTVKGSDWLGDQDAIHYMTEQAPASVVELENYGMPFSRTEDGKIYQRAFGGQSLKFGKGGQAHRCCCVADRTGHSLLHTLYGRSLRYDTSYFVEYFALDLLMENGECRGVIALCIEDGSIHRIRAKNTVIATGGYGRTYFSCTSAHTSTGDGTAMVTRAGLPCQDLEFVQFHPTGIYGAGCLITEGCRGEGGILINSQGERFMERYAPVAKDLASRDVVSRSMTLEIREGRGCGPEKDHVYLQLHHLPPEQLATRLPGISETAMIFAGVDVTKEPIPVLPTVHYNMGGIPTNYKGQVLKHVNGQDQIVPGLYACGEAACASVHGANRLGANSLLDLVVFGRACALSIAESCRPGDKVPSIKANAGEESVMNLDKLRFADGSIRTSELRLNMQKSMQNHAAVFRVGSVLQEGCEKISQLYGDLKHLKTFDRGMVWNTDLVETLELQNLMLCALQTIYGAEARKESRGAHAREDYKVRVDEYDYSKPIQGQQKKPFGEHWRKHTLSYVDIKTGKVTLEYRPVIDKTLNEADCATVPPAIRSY
T1 sequence (Q9CQA3 31-282): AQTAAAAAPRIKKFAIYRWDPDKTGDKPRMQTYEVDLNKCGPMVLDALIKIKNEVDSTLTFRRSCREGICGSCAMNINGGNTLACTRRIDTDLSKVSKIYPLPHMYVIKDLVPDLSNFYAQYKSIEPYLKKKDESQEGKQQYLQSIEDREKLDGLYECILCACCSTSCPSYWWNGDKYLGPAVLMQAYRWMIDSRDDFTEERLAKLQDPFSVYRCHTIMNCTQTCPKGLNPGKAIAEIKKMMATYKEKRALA
T1 sequence (Q9CZB0 30-169): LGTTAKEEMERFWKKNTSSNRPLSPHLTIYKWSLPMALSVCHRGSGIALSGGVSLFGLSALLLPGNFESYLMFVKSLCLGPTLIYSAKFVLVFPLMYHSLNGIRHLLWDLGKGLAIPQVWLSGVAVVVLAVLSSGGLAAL
T1 sequence (Q9CXV1 57-159): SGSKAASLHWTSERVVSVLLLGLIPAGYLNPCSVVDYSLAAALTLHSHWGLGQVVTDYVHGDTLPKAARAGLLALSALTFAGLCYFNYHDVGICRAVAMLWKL
Description: as §1, with “The mice were randomly assigned to syngeneic, allogeneic or treatment groups in each experiment. No mice were excluded from analysis. No statistical methods were used to predetermine sample size. The investigators were not blinded to allocation during experiments and outcome assessment.” left out
Succinate dehydrogenase functional staining: Specimens were dissected from naïve, syngeneic and allogeneic WT B6 mice at 7 and 21 days post HCT. […] After mounting the slides, images were obtained using Olympus BX51M (Olympus, Japan) and the SDH activity was quantified using Image J (National Institutes of Health, Bethesda, […], USA).

[4] = system: primary colonic epithelial cells (PCECs); test: 51Cr release cytotoxic killing assay, pre-treated PCECs as targets of primed T cells; type: cell-based, B6 WT mice; conditions: for cell death of pre-treated PCECs vs diluent: co-cultured with allo-primed T cells; for apoptosis of pre-treated PCECs: cultured with syngeneic T cells
[5] = system: isolated mitochondria of colon; test: ATP detection assay in isolated mitochondria from IECs; type: biochemical, mice; conditions: 21 days post HCT, after malonate treatment
Description: Mitochondria Isolation: Isolated IECs from syngeneic and allogeneic recipients in mitochondria isolation buffer (MIB) were disrupted using a glass homogenizer with 2-3 strokes. MIB was composed of 70 mM sucrose (#S0389, Sigma-Aldrich), 210 mM mannitol (#M9546, Sigma-Aldrich), 5 mM HEPES, 1 mM EGTA (#E0396, Sigma-Aldrich), 0.5% BSA, pH 7.2 and protease inhibitor cocktail (#78429, Sigma-Aldrich). Homogenate was centrifuged at 800 g for 10 min at 4° C. Following centrifugation, fat/lipid was carefully aspirated, and the remaining supernatant was decanted through 2 layers of cheesecloth to a separate tube and centrifuged twice at 8000 g for 15 min at 4° C. After removal of the light mitochondrial layer, the pellet was resuspended in MIB and centrifuged at 8500 g for 10 min. The final pellet was resuspended in a minimal volume of mitochondrial assay solution (MAS) and kept on ice. […] Total protein (mg/ml) was determined via Pierce BCA Protein Assay (#23225, Thermo Scientific). […] The ATP level was measured using the Cell Titer Glo 2.0 luminescence assay (#G9243, Promega, Madison, WI). Luminescence was measured for 500 ms using a SpectraMax M3 Microplate reader (Molecular Devices, San Jose, CA).

B6 WT mice, colonic IECs = test: DSS chemical induced colitis model; type: in vivo; conditions: twelve days after DSS treatment, vs control animals
Description: Colitis models: For the DSS colitis model, animals were provided with drinking water containing 2.5-3% DSS (#0216011010. MP Biomedicals, Santa Ana, CA) for 7 days. Mice were injected with 100 μg of anti-CTLA-4 mAb (#BE0164, clone 9D9, Bio X Cell, West Lebanon, NH) or isotype control (#BE0086, MCP-11, Bio X Cell) twice (3 and 1 day before DSS administration). For the T-cell transfer induced colitis model, isolated splenic T cells from WT B6 and Prf^−/−mice were stained with DAPI (#422801, 1 μM, Biolenged), APC-Cy7 anti-CD4 (#560246, GK1.5, 1:100, BD Biosciences, San Jose, CA), APC anti-CD25 (#101910, 3C7, 1:100, Biolegend), FITC anti-CD44 (#103006, IM7, 1:100, Biolegend) and PE anti-CD45RB (#103308, C363-16A, 1:100, Biolegend). CD4^+CD25^−CD44^−CD45RB^hi cells were sorted with the MoFlo Astrios cell sorter (Beckman Coulter, Indianapolis, IN) and intraperitoneally injected into Rag-1^−/−recipients.
Fluorescent immunohistochemistry staining: Sections were prepared as mentioned in the SDH functional staining method. […] SDH levels were quantified and measured in intensity from Cy3 positive epithelial cells using Image J. For primary mice colonic epithelial cells, cells were spun down and put on coverslips. […]
Succinate quantification: Isolated IECs were collected, processed and analysed using the Succinate Assay Kit (#ab204718, Abcam) according to the manufacturer's protocol.

C=C(CC(=O)OCCCCCCCC)C(=O)O [4-octyl itaconate, 4-Octyl itaconate]
susceptibility to T cell mediated cytotoxicity [1]: enhance susceptibility to T cell mediated cytotoxicity

O=S(=O)(O)c1cc(O)c(O)c(S(=O)(=O)O)c1 [Tiron]
apoptosis of PCECs induced by GranzymeB and perforin [2]: did not reduce apoptosis

Cc1c(C)c2c(c(C)c1O)CCC(C)(C(=O)O)O2 (stereo not shown) [Trolox]
apoptosis of PCECs induced by GranzymeB and perforin [2]: did not reduce apoptosis

COc1[nH]c(=O)c(C(=O)[C@@H](C)C[C@H](C)[C@@H](Cl)CCl)c(O)c1OC [atpenin A5]
clinical GVHD severity of allogeneic mice vs vehicle [3]: more severe GVHD symptoms | survival of allogeneic mice vs vehicle [3]: died significantly faster | survival of syngeneic mice [3]: survived | SDHA function (SDH enzymatic staining) (SDHA): inhibited SDHA function

C=C(CC(=O)OC)C(=O)OC [itaconate, dimethyl itaconate]
cell death of pre-treated PCECs vs diluent [4]: significantly higher levels of cell death | apoptosis of pre-treated PCECs [4]: no increase in apoptosis | histopathological GVHD severity in the colon and ileum [3]: increased GVHD severity | histopathological GVHD severity in the liver, skin, and lungs [3]: not in the liver, skin, and lungs | clinical GVHD severity of allogeneic mice vs vehicle [3]: more severe GVHD symptoms | survival of allogeneic mice vs vehicle [3]: died significantly faster | SDHA function (SDH enzymatic staining) (SDHA): inhibited SDHA function

COC(=O)CC(=O)OC [malonate, dimethyl malonate]
cell death of pre-treated PCECs vs diluent [4]: significantly higher levels of cell death | apoptosis of pre-treated PCECs [4]: no increase in apoptosis | ATP production, difference between mitochondria from allogeneic and syngeneic/naive animals [5]: difference diminished | histopathological GVHD severity in the colon and ileum [3]: increased GVHD severity | histopathological GVHD severity in the liver, skin, and lungs [3]: not in the liver, skin, and lungs | clinical GVHD severity of allogeneic mice vs vehicle [3]: more severe GVHD symptoms | survival of allogeneic mice vs vehicle [3]: died significantly faster | survival of syngeneic mice [3]: survived | SDHA function (SDH enzymatic staining) (SDHA): inhibited SDHA function

dextran sulfate sodium [DSS]
SDHA levels in colonic IECs (B6 WT mice, colonic IECs): similar | succinate levels in colonic IECs (B6 WT mice, colonic IECs): similar
